According to patent US9833497B2, “Human originated EGF domain proteins and use of the same” (CHENGDU SOURCEBIO LIMITED-LIABILITY COMPANY, priority 2013, dated 2017):

Experiments:
Assay type in all cases: cell-based
[1] = test system: E. coli DH5α; experiment: Antibacterial activity: MIC and growth curve against E. coli DH5α in 96-well plate; settings: minimal inhibitory concentration against E. coli DH5α; 96-well plate, 5×10^5 CFU/mL, 37° C., judged after 8 h
Outline: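 MIC taken as lowest protein level with no bacterial growth, tracked by A600 every 30 min during 37 °C, 175 rpm culture. Two-fold protein series 50-12.5 μg/mL final, triplicate wells, against 5×10^5 CFU/mL of LB-washed mid-log cells.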

[2] = test system: E. coli BL21; experiment: MIC against Gram-negative bacteria: E. coli BL21; settings: for MIC E. coli BL21: two-fold serial dilution
Outline: (§1)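 Two-fold serial dilutions of each purified human EGF domain protein, three replicate wells per level, were combined with bacteria at a final 5×10^5 CFU/mL in LB. Cultures were shaken at 175 rpm, 37° C. The MIC was taken as the minimum concentration preventing growth.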

[3] = test system: Pseudomonas aeruginosa; experiment: MIC against Gram-negative bacteria: Pseudomonas aeruginosa; settings: for MIC P. aeruginosa: two-fold serial dilution
Outline: as §1

[4] = test system: Klebsiella pneumonia; experiment: MIC against Gram-negative bacteria: Klebsiella pneumonia; settings: for MIC K. pneumonia: two-fold serial dilution
Outline: as §1

[5] = test system: Enterobacter cloacae; experiment: MIC against Gram-negative bacteria: Enterobacter cloacae; settings: for MIC E. cloacae: two-fold serial dilution
Outline: as §1

[6] = test system: Aeromonas hydrophila; experiment: MIC against Gram-negative bacteria: Aeromonas hydrophila; settings: for MIC A. hydrophila: two-fold serial dilution
Outline: as §1

[7] = test system: Citrobacter diversus; experiment: MIC against Gram-negative bacteria: Citrobacter diversus; settings: for MIC C. diversus: two-fold serial dilution
Outline: as §1

[8] = test system: Moraxella catarrhalis; experiment: MIC against Gram-negative bacteria: Moraxella catarrhalis; settings: for MIC M. catarrhalis: two-fold serial dilution
Outline: as §1

[9] = test system: Proteus mirabilis; experiment: MIC against Gram-negative bacteria: Proteus mirabilis; settings: for MIC P. mirabilis: two-fold serial dilution
Outline: as §1

[10] = test system: Proteus vulgaris; experiment: MIC against Gram-negative bacteria: Proteus vulgaris; settings: for MIC P. vulgaris: two-fold serial dilution
Outline: as §1

[11] = test system: Serratia marcescens; experiment: MIC against Gram-negative bacteria: Serratia marcescens; settings: for MIC S. marcescens: two-fold serial dilution
Outline: as §1

[12] = 10 h cultivation at 37° C., 5×10^5 CFU/mL

Substance	MIC [1] [µg/mL]	MIC E. coli BL21 [2, 12] [µg/mL]	MIC P. aeruginosa [3, 12] [µg/mL]	MIC K. pneumonia [4, 12] [µg/mL]	MIC E. cloacae [5, 12] [µg/mL]	MIC A. hydrophila [6, 12] [µg/mL]	MIC C. diversus [7, 12] [µg/mL]	MIC M. catarrhalis [8, 12] [µg/mL]	MIC P. mirabilis [9, 12] [µg/mL]	MIC P. vulgaris [10, 12] [µg/mL]	MIC S. marcescens [11, 12] [µg/mL]	also measured
PRT1056 (DQDDCAPVGCSMYARCISEGEDATCQCLKGFAGDGKLCS; listed as Homo sapiens)	50	25	12.5	25	50	12.5	50	12.5	50	12.5	25	
PRT1417 (RACHPRCAEHGTCRDGKCECSPGWNGEHCT; listed as Homo sapiens)	25											MIC against E. coli BL21 ([2]; E. coli BL21, 5×10^5 CFU/mL, 10 h cultivation at 37° C.): 12.5 µg/mL; MIC against P. aeruginosa ([3]; Pseudomonas aeruginosa, 5×10^5 CFU/mL, 10 h cultivation at 37° C.): 12.5 µg/mL; MIC against K. pneumonia ([4]; Klebsiella pneumonia, 5×10^5 CFU/mL, 10 h cultivation at 37° C.): 50 µg/mL; MIC against E. cloacae ([5]; Enterobacter cloacae, 5×10^5 CFU/mL, 10 h cultivation at 37° C.): 12.5 µg/mL; MIC against A. hydrophila ([6]; Aeromonas hydrophila, 5×10^5 CFU/mL, 10 h cultivation at 37° C.): 50 µg/mL; MIC against C. diversus ([7]; Citrobacter diversus, 5×10^5 CFU/mL, 10 h cultivation at 37° C.): 25 µg/mL; MIC against M. catarrhalis ([8]; Moraxella catarrhalis, 5×10^5 CFU/mL, 10 h cultivation at 37° C.): 12.5 µg/mL; MIC against P. mirabilis ([9]; Proteus mirabilis, 5×10^5 CFU/mL, 10 h cultivation at 37° C.): 25 µg/mL; MIC against P. vulgaris ([10]; Proteus vulgaris, 5×10^5 CFU/mL, 10 h cultivation at 37° C.): 50 µg/mL; MIC against S. marcescens ([11]; Serratia marcescens, 5×10^5 CFU/mL, 10 h cultivation at 37° C.): 25 µg/mL
PRT103 (CSSYGKLCRNGGKCRERPIGFFCDCTFSAYTGPFC; listed as Homo sapiens)	50											MIC (μg/mL) E. coli BL21 ([2]; E. coli BL21, 96-well plate, 5×10^5 CFU/mL, 37° C., 10 h): 12.5 µg/mL; MIC (μg/mL) P. aeruginosa ([3]; Pseudomonas aeruginosa, 96-well plate, 5×10^5 CFU/mL, 37° C., 10 h): 50 µg/mL; MIC (μg/mL) K. pneumonia ([4]; Klebsiella pneumonia, 96-well plate, 5×10^5 CFU/mL, 37° C., 10 h): 12.5 µg/mL; MIC (μg/mL) E. cloacae ([5]; Enterobacter cloacae, 96-well plate, 5×10^5 CFU/mL, 37° C., 10 h): 12.5 µg/mL; MIC (μg/mL) A. hydrophila ([6]; Aeromonas hydrophila, 96-well plate, 5×10^5 CFU/mL, 37° C., 10 h): 12.5 µg/mL; MIC (μg/mL) C. diversus ([7]; Citrobacter diversus, 96-well plate, 5×10^5 CFU/mL, 37° C., 10 h): 12.5 µg/mL; MIC (μg/mL) M. catarrhalis ([8]; Moraxella catarrhalis, 96-well plate, 5×10^5 CFU/mL, 37° C., 10 h): 12.5 µg/mL; MIC (μg/mL) P. mirabilis ([9]; Proteus mirabilis, 96-well plate, 5×10^5 CFU/mL, 37° C., 10 h): 25 µg/mL; MIC (μg/mL) P. vulgaris ([10]; Proteus vulgaris, 96-well plate, 5×10^5 CFU/mL, 37° C., 10 h): 12.5 µg/mL; MIC (μg/mL) S. marcescens ([11]; Serratia marcescens, 96-well plate, 5×10^5 CFU/mL, 37° C., 10 h): 25 µg/mL
PRT945 (QLDECASNPCQHGATCSDFIGGYRCECVPGYQGVNCE; listed as Homo sapiens)	25											MIC ([2]; E. coli BL21, 10 h cultivation at 37° C.): 50 µg/mL; MIC ([3]; P. aeruginosa, 10 h cultivation at 37° C.): 25 µg/mL; MIC ([4]; K. pneumonia, 10 h cultivation at 37° C.): 12.5 µg/mL; MIC ([5]; E. cloacae, 10 h cultivation at 37° C.): 25 µg/mL; MIC ([6]; A. hydrophila, 10 h cultivation at 37° C.): 50 µg/mL; MIC ([7]; C. diversus, 10 h cultivation at 37° C.): 12.5 µg/mL; MIC ([8]; M. catarrhalis, 10 h cultivation at 37° C.): 25 µg/mL; MIC ([9]; P. mirabilis, 10 h cultivation at 37° C.): 50 µg/mL; MIC ([10]; P. vulgaris, 10 h cultivation at 37° C.): 12.5 µg/mL; MIC ([11]; S. marcescens, 10 h cultivation at 37° C.): 25 µg/mL
PRT1133 (KAGPCEQAGSPCRNGGQCQDDQGFALNFTCRCLVGFVGARCE; listed as Homo sapiens)	12.5	12.5	12.5	12.5	25	25	12.5	25	12.5	25	12.5	
PRT1150 (HVPWCAHHLCRNNGTCISDNENLFCECPRLYSGK; listed as Homo sapiens)	12.5	50	12.5	50	12.5	50	25	12.5	25	50	25	
